{"source": "paper PMC7875539", "about": "(Science Advances, 2021)", "details_in_all_cases": "100 mM KCl, 5 mM MgCl2, 20 mM Hepes pH 7.5, 25 °C; CBS domain nucleotide site", "key": {"TpCorC CBS domain [1]": {"target": "TpCorC CBS domain (Thermus parvatiensis, UniProt A0A109QFA5)", "sequence (A0A109QFA5 202-361 limits assumed)": "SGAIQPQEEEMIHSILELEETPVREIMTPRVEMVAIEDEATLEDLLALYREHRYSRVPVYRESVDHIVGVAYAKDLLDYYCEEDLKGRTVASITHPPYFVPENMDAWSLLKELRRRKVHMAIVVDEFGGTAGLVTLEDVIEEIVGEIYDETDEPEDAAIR"}, "TpCorC CBS domain [2]": {"target": "TpCorC CBS domain (Thermus parvatiensis, UniProt A0A109QFA5, Y255A)", "sequence (A0A109QFA5 202-361 Y255A limits assumed)": "as the sequence (A0A109QFA5 202-361 limits assumed) above, with Y54A counted along it"}, "TpCorC CBS domain [3]": {"target": "TpCorC CBS domain (Thermus parvatiensis, UniProt A0A109QFA5, T336I)", "sequence (A0A109QFA5 202-361 T336I limits assumed)": "as the sequence (A0A109QFA5 202-361 limits assumed) above, with T135I counted along it"}}}
{"smiles": "Nc1ncnc2c1ncn2[C@@H]1O[C@H](COP(=O)(O)OP(=O)(O)OP(=O)(O)O)[C@@H](O)[C@H]1O", "note": "[ATP]", "values": [{"measurement": "Kd", "setting": "TpCorC CBS domain [1]", "value": 460, "unit": "nM"}, {"measurement": "Kd", "setting": "TpCorC CBS domain [2]", "value": 2800, "unit": "nM"}, {"measurement": "Kd", "setting": "TpCorC CBS domain [3]", "value": 9400, "unit": "nM"}]}
